In patent publication US9073961B2, “Substitution derivatives of N6 -benzyladenosine-5′-monophosphate, methods of preparation thereof, use thereof as medicaments, and therapeutic preparations containing these compounds” (UNIVERZITA PALACKEHO V OLOMOUCI, priority 2010, dated 2015):

Key:
[1] = system: Human lymphocytes; experiment: Immunosuppressive activity, 3H-thymidine incorporation in concanavalin A activated lymphocytes; type: cell-based; conditions: 72 hours, [3H]-TdR incorporation, read-out: Human lymphocytes ED50
Description: One of the most important parameters of specific cellular immunity is the proliferative response of lymphocytes to antigens or polyclonal mitogens. The majority of normal mammalian peripheral lymphocytes comprise resting cells. Antigens or nonspecific polyclonal mitogens have the capacity to activate lymphoid cells and this is accompanied by dramatic changes of intracellular metabolism (mitochondrial activity, protein synthesis, nucleic acids synthesis, formation of blastic cells and cellular proliferation). […] Variety of in vitro assays was developed to measure proliferative response of lymphocytes. The most commonly used is ^3H-thymidine incorporation method.
During cell proliferation, DNA has to be replicated before the cell is divided into two daughter cells. This close association between cell doublings and DNA synthesis is very attractive for assessing cell proliferation. If labelled DNA precursors are added to the cell culture, cells that are about to divide incorporate the labelled nucleotide into their DNA. Traditionally, those assays usually involve the use of radiolabelled nucleosides, particularly tritiated thymidine ([^3H]-TdR). The amount of [^3H]-TdR incorporated into the cellular DNA is quantified by liquid scintillation counting.
Human heparinized peripheral blood was obtained from healthy volunteers by cubital vein punction. The blood was diluted in PBS (1:3) and mononuclear cells were separated by centrifugation in Ficoll-Hypaque density gradient (Pharmacia, 1.077 g/ml) at 2200 rpm for 30 minutes. Following centrifugation, lymphocytes were washed in PBS and resuspended in cell culture medium (RMPI 1640, 2 mM glutamine, 100 U/ml penicillin, 100 μg/ml streptomycin, 10% fetal calf serum and sodium bicarbonate).
The cells were diluted at target density of 1.100.000 cells/ml and were added by pipette (180 μl) into 96-well microtiter plates. Four-fold dilutions of the intended test concentration were added at time zero in 20 μl aliquots to the microtiter plate wells. Usually, test compound was evaluated at six 4-fold dilutions. In routine testing, the highest well concentration was 266.7 μM. All drug concentrations were examined in duplicates. All wells with exception of unstimulated controls were activated with 50 μl of concanavalin A (25 μg/ml). Incubations of cells with test compounds lasted for 72 hours at 37° C., in 5% CO2 atmosphere and 100% humidity. At the end of incubation period, the cells were assayed by using the [^3H]-TdR:
Cell cultures were incubated with 0.5 μCi (20 μl of stock solution 500 μCi/ml) per well for 6 hours at 37° C. and 5% CO2. The automated cell harvester was used to lyse cells in water and adsorb the DNA onto glass-fiber filters in the format of microtiter plate. The DNA incorporated [^3H]-TdR was retained on the filter while unincorporated material passes through. The filters were dried at room temperature overnight, sealed into a sample bag with 10-12 ml of scintillant. The amount of [^3H]-TdR present in each filter (in cpm) was determined by scintillation counting in a Betaplate liquid scintillation counter. The effective dose of immunosuppressant (ED) was calculated using the following equation: ED=(CCPMdrug exposed well/mean CCPMcontrol wells)×100%. The ED50 value, the drug concentration inhibiting proliferation of 50% of lymphocytes, was calculated from the obtained dose response curves.
To evaluate immunosuppressive activity of substituted adenines, their ability to inhibit polyclonal mitogen induced proliferation of normal human lymphocytes was analyzed (Table 4). […] Effective immunosuppressive dose of new derivatives under in vitro conditions was close to 10-40 μM.

[2] = system: cytokinin-dependent tobacco callus Nicotiana tabacum L. cv. Wisconsin 38; experiment: Growth of cytokinin-dependent tobacco callus; type: cell-based; conditions: for Activity (%) [10^−5 mol · l^−1 KR = 100%]: at concentration with highest activity, relative to control cytokinin; for Concentration with highest activity: tobacco callus fresh weight after four weeks
Protocol: Cytokinin effect of newly prepared derivatives was tested using cytokinin-dependent tobacco callus. The cytokinin-dependent tobacco callus Nicotiana tabacum L. cv. Wisconsin 38 was maintained at 25° C. in darkness on modified MS medium, containing per 1 liter: 4 μmol of nicotinic acid, 2.4 μmol of pyridoxine hydrochloride, 1.2 μmol of thiamine, 26.6 μmol of glycine, 1.37 μmol of glutamine, 1.8 μmol of myo-inositol, 30 g of sucrose, 8 g of agar, 5.37 μmol of NAA and 0.5 μmol of the compound tested. Subcultivation was carried out every three weeks. Fourteen days before the bioassay, the callus tissue was transferred to the media without 6-benzylaminopurine. The biological activity was determined from the increase of the fresh callus weight after four weeks of cultivation. Five replicates were prepared for each concentration of the compound tested and the entire test was repeated twice. […] The compounds to be tested were dissolved in dimethylsulfoxide (DMSO) and the solution brought up to 10^−3 M with distilled water. […] The stimulatory activity was calculated from the dose-dependent fresh weight callus growth curves.
From the obtained data, the concentration with the highest activity was selected for each compound tested. Relative activity of the compound at this concentration was calculated (Table 5). […]

[3] = system: HL-60 (promyelocytic leukemia); experiment: Calcein AM cytotoxicity assay, HL60; type: cell-based, human
Description: (§1) Because toxic compounds negatively influence metabolic processes in cells, many standard cytotoxicity assays are based on measurement of metabolisation rate of various artificial substrates. Resulting product is then quantified e.g. by means of spectrometry. The assays can be easily modified for use in 96-well plates. For evaluation of cytotoxic effect of the novel substituted 9-substituted cytokinin derivatives of this invention, a microtiter assay based on quantification of metabolisation of Calcein AM was used. The assay is widely used in drug screening programs and in chemosensitivity testing. In the living cells, Calcein AM is enzymatically hydrolysed and accumulation of resulting calcein is manifested by green fluorescence.
(§2) In the routine screening the following cell lines have been used: CEM (T-lymphoblastoid leukemia), HL-60 (promyelocytic leukemia), K-562 (human erythroleukemia), MCF-7 (breast carcinoma), HOS (human osteogenic sarcoma), and G-361 (human malignant melanoma). Normal human fibroblasts BJ were used as a control for routine screening of the compounds. The cells were kept in Nunc/Corning 80 cm^2 plastic bottles and grown in cell culture medium (DMEM containing 5 g/l glucose, 2 mM glutamine, 100 U/ml penicilline, 100 μg/ml streptomycine, 10% fetal bovine serum and sodium hydrogencarbonate), the compounds were prepared according to the procedure of the present invention.
(§3) The cell suspensions were prepared and diluted according to the particular cell type and the expected target cell density (2.500-30.000 cells per well based on cell growth characteristics) and pippetted (80 μl) into 96-well plates. Inoculates were allowed a pre-incubation period of 24 hours at 37° C. and 5% CO2 for stabilisation. Tested compound was added in total volume of 20 μl of water at time zero. Usually, test compound was evaluated at six 3-fold dilutions. In routine testing, the highest concentration tested was 166.7 μM. All drug concentrations were tested in triplicates. Incubations of cells with the test compounds lasted for 72 hours at 37° C., in 5% CO2 atmosphere and 100% humidity. At the end of incubation period Calcein AM in PBS was added into final concentration of 1 μg/ml. After another 1 hour of incubation fluorescence (FD) was measured with the Labsystem FIA Reader Fluoroscan Ascent (Microsystems). Tumor cell survival (TCS) was estimated using the following equation: […]=(FDdrug exposed well/FDcontrol well)×100%. The GI50 value, the drug concentration causing 50% reduction of esterase activity, was calculated from the obtained dose response curves (FIG. 1).
(§4) Cytoxicity of novel compounds was tested on panel of cell lines of different histogenetic and species origin (Table 3). […] The effective novel derivatives killed tumour cells in concentrations close to 0.1-50 μM.

[4] = system: K-562 (human erythroleukemia); experiment: Calcein AM cytotoxicity assay, K-562; type: cell-based
Description: as §1, §2, §3, §4

[5] = system: HOS (human osteogenic sarcoma); experiment: Calcein AM cytotoxicity assay, HOS; type: cell-based; conditions: 72 hours incubation
Description: as §1, §2, §3, §4

[6] = system: MCF-7 (breast carcinoma); experiment: Calcein AM cytotoxicity assay, MCF7; type: cell-based; conditions: 72 hours incubation
Description: as §1, §2, §3, §4

[7] = system: CEM (T-lymphoblastoid leukemia); experiment: Calcein AM cytotoxicity assay, CEM; type: cell-based; conditions: 72 hours incubation, Calcein AM
Description: as §1, §2, §3, §4

[8] = system: Normal human fibroblasts BJ; experiment: Calcein AM cytotoxicity assay, BJ; type: cell-based; conditions: 72 hours incubation
Description: as §1, §2, §3, §4

[9] = system: G-361 (human malignant melanoma); experiment: Calcein AM cytotoxicity assay, G-361; type: cell-based; conditions: 72 hours incubation
Description: as §1, §2, §3, §4

SMILES | EC50 [1] [µM] | Activity (%) [10^−5 mol · l^−1 KR = 100%] [2] [%] | Concentration with highest activity [2] | GI50 ([3]; 72 hours incubation) [µM] | GI50 ([4]; 72 hours incubation) [µM] | GI50 [5] [µM] | GI50 [6] [µM] | GI50 [7] [µM] | GI50 [8] [µM] | GI50 [9] [µM] | GI50 ([3]; Homo sapiens, HL-60, 72 hours incubation) [µM] | GI50 ([4]; Homo sapiens, K562, 72 hours incubation) [µM] | GI50 ([5]; Homo sapiens) [µM] | GI50 ([6]; Homo sapiens) [µM] | GI50 ([8]; Homo sapiens, Fibroblast) [µM] | GI50 ([9]; Homo sapiens) [µM]
O=P(O)(O)OC[C@H]1O[C@@H](n2cnc3c(NCc4cccc(Cl)c4O)ncnc32)[C@H](O)[C@@H]1O [2-hydroxy-3-chlorobenzylamino, 6-(2-hydroxy-3-chlorobenzylamino)purine ribo side-5′-monophosphate] | 3.2 | – | – | – | – | – | – | – | – | – | – | – | – | – | – | –
Cc1ccccc1CNc1ncnc2c1ncn2[C@@H]1O[C@H](COP(=O)(O)O)[C@@H](O)[C@H]1O [Compound 12, 6-(2-methylbenzylamino)purine riboside-5′-monophosphate] | 7.3 | 108 ± 4 | 10^−6 mol · l^−1 | 3.3 | > 167 | > 167 | > 167 | 14 | > 167 | – | – | – | – | – | – | –
O=P(O)(O)OC[C@H]1O[C@@H](n2cnc3c(NCc4cccc(Cl)c4)ncnc32)[C@H](O)[C@@H]1O [Compound 5, 6-(3-chlorobenzylamino)purine riboside-5′-monophosphate] | 3.2 | 109 ± 5 | 10^−5 mol · l^−1 | 0.75 | 30.4 | > 167 | > 167 | 1.6 | > 167 | – | – | – | – | – | – | –
COc1ccc(O)c(CNc2ncnc3c2ncn3[C@@H]2O[C@H](COP(=O)(O)O)[C@@H](O)[C@H]2O)c1 [Compound 29, 6-(2-hydroxy-5-methoxybenzylamino)purine riboside-5′-monophosphate] | – | – | – | 0.54 | 15.4 | 6.4 | 21 | 0.9 | 87.9 | 12.3 | – | – | – | – | – | –
C/C(=C\CNc1ncnc2c1ncn2[C@@H]1O[C@H](CO)[C@@H](O)[C@H]1O)CO [zeatin riboside, reference compound] | – | – | – | > 167 | > 167 | > 167 | > 167 | > 167 | > 167 | > 167 | – | – | – | – | – | –
O=P(O)(O)OC[C@H]1O[C@@H](n2cnc3c(NCc4ccc(F)cc4)ncnc32)[C@H](O)[C@@H]1O [Compound 3, 6-(4-fluorobenzylamino)purine riboside-5′-monophosphate] | 13.4 | – | – | 0.86 | 6.4 | 20 | 14 | 1.5 | > 167 | – | – | – | – | – | – | –
Nc1ncnc2c1ncn2[C@@H]1O[C@H](CO)[C@@H](O)[C@H]1O [adenosine] | – | – | – | – | – | – | – | > 167 | – | – | > 167 | > 167 | > 167 | > 167 | > 167 | > 167
COc1ccc(CNc2ncnc3c2ncn3[C@@H]2O[C@H](COP(=O)(O)O)[C@@H](O)[C@H]2O)c(O)c1 [2-hydroxy-4-methoxybenzylamino, 6-(2-hydroxy-4-methoxybenzylamino)purine riboside-5′-monophosphate] | 2.1 | – | – | – | – | – | – | – | – | – | – | – | – | – | – | –
O=P(O)(O)OC[C@H]1O[C@@H](n2cnc3c(NCc4ccccc4Cl)ncnc32)[C@H](O)[C@@H]1O [Compound 4, 6-(2-chlorobenzylamino)purine riboside-5′-monophosphate] | 8.7 | 121 ± 4 | 10^−6 mol · l^−1 | 1.6 | 64 | > 167 | > 167 | 14.5 | > 167 | – | – | – | – | – | – | –
O=P(O)(O)OC[C@H]1O[C@@H](n2cnc3c(NCc4ccc(Cl)cc4)ncnc32)[C@H](O)[C@@H]1O [Compound 6, 6-(4-chlorobenzylamino)purine riboside-5′-monophosphate] | 3.3 | – | – | 5.3 | 16.1 | > 167 | > 167 | 6.5 | > 167 | – | – | – | – | – | – | –
Cc1cccc(CNc2ncnc3c2ncn3[C@@H]2O[C@H](COP(=O)(O)O)[C@@H](O)[C@H]2O)c1 [Compound 13, 6-(3-methylbenzylamino)purine riboside-5′-monophosphate] | 7.5 | – | – | 6.4 | > 167 | > 167 | > 167 | 19.1 | > 167 | – | – | – | – | – | – | –
O=P(O)(O)OC[C@H]1O[C@@H](n2cnc3c(NCc4ccc(O)c(O)c4)ncnc32)[C@H](O)[C@@H]1O [3,4-dihydroxybenzylamino, 6-(3,4-dihydroxybenzylamino)purine riboside-5′-monophosphate] | 9.4 | – | – | – | – | – | – | – | – | – | – | – | – | – | – | –
O=P(O)(O)OC[C@H]1O[C@@H](n2cnc3c(NCc4ccccc4F)ncnc32)[C@H](O)[C@@H]1O [Compound 1, 6-(2-fluorobenzylamino)purine riboside-5′-monophosphate] | 6.3 | 100 ± 9 | 10^−6 mol · l^−1 | 3.2 | 33.2 | > 167 | > 167 | 4.6 | – | – | – | – | – | – | – | –
